The values that follow come from publication PMC9060465 (Proceedings of the National Academy of Sciences of the …, 2022).

For experiment [1], the target named is T1, ECD of human GIPR (amino acids 26 to 138) (Homo sapiens, UniProt P48546).
T1 construct: human GIPR (amino acids 26 to 138); 6His; made in house; host or cells: CHO cells
T1 sequence (P48546 26-138): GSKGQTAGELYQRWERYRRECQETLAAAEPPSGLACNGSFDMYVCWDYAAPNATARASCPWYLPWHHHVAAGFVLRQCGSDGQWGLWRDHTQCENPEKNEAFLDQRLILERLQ
Description: GIPR extracellular domain binding by surface plasmon resonance. Conditions: equilibrium affinity, immobilized GIPR ectodomain, Biacore T200, HBS-EP pH 7.6; (SEM, n); read-out: GIPR SPR KD. The source says:
DNA encoding each protein was transfected into CHO cells for expression. After expression, the proteins were purified by affinity chromatography (HIS-Trap Ni, Cytiva) followed by size exclusion chromatography using a HiLoad 26/600 Superdex 75pg column (Cytiva) with PBS buffer. […] Surface plasmon resonance measurements were made using a Biacore T200 (Cytiva) and analyzed using T200 Evaluation Software Version 3.1. Receptor ectodomain proteins were covalently immobilized (∼250 resonance units) on Sensor Chip CM4 BR100534 using the Amine coupling Immobilization Wizard in the Biacore T200 Control Software Version 2.0.2. […]
and efficacy (% Top) of ligands to induce Gα s -GTPγS binding and cAMP accumulation in HEK293 cells expressing GIPR were determined. The equilibrium affinity (KD) of ligands for the immobilized ectodomain of the GIPR were quantified by surface plasmon resonance. […]
(§1) Functional potency (EC50) and efficacy (% Top) of ligands to induce Gα s-GTPγS binding and cAMP accumulation in HEK293 cells expressing GLP-1R were determined. The equilibrium affinity (KD) of ligands for the immobilized ectodomain of the GLP-1R were quantified by surface plasmon resonance. […]
(§2) recruitment to the GLP-1R were determined using the NanoBRET approach. The potency (EC50) and efficacy (% Top) for ligands to induce GLP-1R Internalization were determined using diffusion-enhanced resonance energy transfer. […]

Experiment [2] deals with T2, GLP-1R (Homo sapiens, UniProt P43220). The experiment is described as follows: β-arrestin 1 recruitment to the GLP-1R, NanoBRET. It is filed as cell-based. Also noted: expressed in transfected cells. The method, then: Functional potency (EC50) […]
and efficacy (% Top) of ligands to induce Gα s -GTPγS binding and cAMP accumulation in HEK293 cells expressing GIPR were determined. The equilibrium affinity (KD) of ligands for the immobilized ectodomain of the GIPR were quantified by surface plasmon resonance. Middle Panel: The affinity (Ki) of ligands for the GLP-1R was […]
as §1, §2
relative efficacy for NanoBRET assays. SPR data were analyzed using T200 evaluation software (Cytiva). All data are presented as geometric means with SEM and n values according to established practices. ND, not determined. NA, not applicable.
Target sequence in this assay (P43220 24-463): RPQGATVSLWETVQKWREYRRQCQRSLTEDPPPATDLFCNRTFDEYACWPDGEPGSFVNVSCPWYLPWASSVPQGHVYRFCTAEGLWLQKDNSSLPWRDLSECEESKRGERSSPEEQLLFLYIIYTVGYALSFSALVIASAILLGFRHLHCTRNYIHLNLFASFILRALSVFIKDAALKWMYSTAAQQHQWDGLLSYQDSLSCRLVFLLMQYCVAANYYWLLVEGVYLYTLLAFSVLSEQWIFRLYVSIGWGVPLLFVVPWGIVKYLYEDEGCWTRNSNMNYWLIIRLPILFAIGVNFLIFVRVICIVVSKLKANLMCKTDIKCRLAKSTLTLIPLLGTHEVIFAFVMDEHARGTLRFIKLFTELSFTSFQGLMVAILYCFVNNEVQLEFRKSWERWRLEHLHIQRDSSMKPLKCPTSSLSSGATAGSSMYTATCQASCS
Target sequence in this assay (P49407 whole entry partner, the tested form may be a part): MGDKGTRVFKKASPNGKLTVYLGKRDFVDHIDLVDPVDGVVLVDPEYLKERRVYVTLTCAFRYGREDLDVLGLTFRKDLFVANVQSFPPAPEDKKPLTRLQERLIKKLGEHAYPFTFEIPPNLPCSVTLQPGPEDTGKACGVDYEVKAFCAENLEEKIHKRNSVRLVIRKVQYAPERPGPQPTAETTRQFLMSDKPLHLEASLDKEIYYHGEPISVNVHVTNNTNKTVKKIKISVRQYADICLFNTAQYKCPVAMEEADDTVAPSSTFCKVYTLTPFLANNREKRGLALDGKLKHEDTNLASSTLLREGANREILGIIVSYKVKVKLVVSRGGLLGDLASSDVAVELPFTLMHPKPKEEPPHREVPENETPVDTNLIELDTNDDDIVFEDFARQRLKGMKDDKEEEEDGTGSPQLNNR

Experiment [3] has as its target T3, human GIPR (Homo sapiens, UniProt P48546).
T3 construct: expressed in transfected cells; host or cells: HEK293
T3 sequence (P48546 22-466): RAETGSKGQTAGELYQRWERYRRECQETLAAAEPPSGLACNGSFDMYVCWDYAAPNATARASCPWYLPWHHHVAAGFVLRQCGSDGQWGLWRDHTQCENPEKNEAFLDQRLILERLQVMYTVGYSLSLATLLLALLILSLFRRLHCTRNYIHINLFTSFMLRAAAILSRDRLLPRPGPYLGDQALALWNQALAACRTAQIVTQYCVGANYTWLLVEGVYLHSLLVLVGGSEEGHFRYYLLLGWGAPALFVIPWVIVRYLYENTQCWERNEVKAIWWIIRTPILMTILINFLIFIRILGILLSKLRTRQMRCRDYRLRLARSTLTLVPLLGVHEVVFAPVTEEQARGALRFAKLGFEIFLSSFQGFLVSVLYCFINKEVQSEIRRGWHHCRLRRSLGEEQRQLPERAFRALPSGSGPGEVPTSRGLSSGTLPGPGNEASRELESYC
Description: GIPR low density cAMP accumulation in HEK293 cells. The class given is cell-based. The procedure: (§3) Fig. 4. […] (B) Ligand-induced GTPγS binding of Gαs was performed using the GIPR-expressing membranes. […] (C) Agonist-stimulated cAMP production was measured in human GIPR expressing HEK293 cells. […] (E) Ligand-induced GTPγS binding of Gαs was performed using the GLP-1R-expressing membranes. […] (F) Agonist-stimulated cAMP production was measured in human GLP-1R-expressing HEK293 cells. […] Data presented are representative of n ≥ 3 independent experiments. Summarized data are shown in SI Appendix, Table 2. log M; log Molar.
(§4) We note that the albumin-binding propensity of fatty acid-modified peptides can confound a pharmacological comparison of molecules, given the common use of albumin and serum as nonspecific blocking agents in biological assays. Therefore, to obviate this, entirely albumin-free assays supplemented with bovine casein or bacitracin were used to prevent nonspecific binding ([10]).
(§5) Functional potency (EC50)
(§6) and efficacy (% Top) of ligands to induce Gα s -GTPγS binding and cAMP accumulation in HEK293 cells expressing GIPR were determined. The equilibrium affinity (KD) of
(§7) ligands for the immobilized ectodomain of the GIPR were quantified by surface plasmon resonance. […]
(§8) SPR data were analyzed using T200 evaluation software (Cytiva). All data are presented as geometric means with SEM and n values
(§9) according to established practices. ND, not determined. NA, not applicable.

The target of experiment [4] is T2, GLP-1R. The experiment is described as follows: GRK2 recruitment to the GLP-1R, NanoBRET. It is filed as cell-based. Also noted: expressed in transfected cells; host or cells: freestyle HEK cells. The method, then: After 48 h, transfected cells were incubated in phosphate-buffered saline (PBS) containing 0.1% (wt/vol) bovine casein and varying concentrations of the ligands. […]
The potency (EC50) and efficacy (% Top) for ligands to induce GLP-1R Internalization were
determined using diffusion-enhanced resonance energy transfer.
relative efficacy for NanoBRET assays. SPR data were analyzed using T200 evaluation software (Cytiva). All data are presented as geometric means with SEM and n values
as §9
Target sequence in this assay (P43220 24-463): as the sequence (P43220 24-463) above
Target sequence in this assay (P25098 whole entry partner, the tested form may be a part): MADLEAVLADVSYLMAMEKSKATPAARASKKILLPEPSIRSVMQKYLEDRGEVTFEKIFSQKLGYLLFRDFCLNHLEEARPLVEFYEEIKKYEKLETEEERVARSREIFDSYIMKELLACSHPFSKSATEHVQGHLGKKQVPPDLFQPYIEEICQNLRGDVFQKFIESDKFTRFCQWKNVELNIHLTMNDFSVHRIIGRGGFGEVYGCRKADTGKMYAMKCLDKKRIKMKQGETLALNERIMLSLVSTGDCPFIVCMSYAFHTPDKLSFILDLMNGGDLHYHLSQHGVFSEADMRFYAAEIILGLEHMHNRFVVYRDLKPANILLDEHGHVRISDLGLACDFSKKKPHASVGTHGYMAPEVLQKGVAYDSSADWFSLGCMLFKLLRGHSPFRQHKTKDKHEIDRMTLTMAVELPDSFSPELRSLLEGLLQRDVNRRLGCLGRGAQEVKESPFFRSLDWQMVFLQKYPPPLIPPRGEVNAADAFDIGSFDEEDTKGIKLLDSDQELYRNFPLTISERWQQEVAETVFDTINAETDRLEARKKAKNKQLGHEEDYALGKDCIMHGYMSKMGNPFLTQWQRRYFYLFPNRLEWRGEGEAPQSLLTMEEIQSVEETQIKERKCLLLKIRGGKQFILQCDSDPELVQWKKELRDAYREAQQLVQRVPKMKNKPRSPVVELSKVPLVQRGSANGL

In experiment [5] the target is T3, human GIPR. The experiment is described as follows: GIPR Gαs [35S]GTPγS binding, GIPR-expressing membranes. The class given is biochemical. The method, then:
as §3, §4, §5, §6, §7, §8, §9

Where [6] appears, read: efficacy (% Top), normalized to GIP(1-42), (SEM).

For the compound `CC[C@H](C)[C@H](NC(=O)[C@H](CC(C)C)NC(=O)[C@H](Cc1c[nH]c2ccccc12)NC(=O)[C@H](CCC(N)=O)NC(=O)[C@@H](NC(=O)[C@H](Cc1ccccc1)NC(=O)[C@H](C)NC(=O)[C@H](CCCCN)NC(=O)[C@H](CCC(N)=O)NC(=O)[C@H](C)NC(=O)[C@@H](NC(=O)[C@H](CCCCN)NC(=O)[C@H](CC(=O)O)NC(=O)[C@H](CC(C)C)NC(=O)C(C)(C)NC(=O)[C@@H](NC(=O)[C@H](CO)NC(=O)[C@H](Cc1ccc(O)cc1)NC(=O)[C@H](CC(=O)O)NC(=O)[C@H](CO)NC(=O)[C@@H](NC(=O)[C@H](Cc1ccccc1)NC(=O)[C@@H](NC(=O)CNC(=O)[C@H](CCC(=O)O)NC(=O)C(C)(C)NC(=O)[C@@H](N)Cc1ccc(O)cc1)[C@@H](C)O)[C@@H](C)O)[C@@H](C)CC)[C@@H](C)CC)C(C)C)C(=O)N[C@@H](C)C(=O)NCC(=O)NCC(=O)N1CCC[C@H]1C(=O)N[C@@H](CO)C(=O)N[C@@H](CO)C(=O)NCC(=O)N[C@@H](C)C(=O)N1CCC[C@H]1C(=O)N1CCC[C@H]1C(=O)N1CCC[C@H]1C(=O)N[C@@H](CO)C(N)=O` [Tzp∆C20], the Kd in experiment [1] was determined as 1690 nM. In addition, the EC50 was 3.99 nM at GLP-1R [2] (NanoBRET, geometric mean (SEM, n), read-out: GLP-1R β-Arr1 Recruitment EC50); 0.0163 nM at human GIPR [3] (cAMP accumulation, HEK293 cells expressing GIPR, albumin-free, geometric mean (SEM, n)); 1.92 nM at GLP-1R [4] (NanoBRET, transfected freestyle HEK cells, PBS with 0.1% casein, geometric mean (SEM, n)); 0.0733 nM at human GIPR [5] (Gαs-GTPγS binding, GIPR-expressing membranes, albumin-free, geometric mean (SEM, n), read-out: GIPR GTPγS Recruitment EC50). For the same compound, the “GLP-1R β-Arr1 Recruitment Top” value on GLP-1R [2] (efficacy (% Top), relative efficacy to GLP-1, (SEM)) is on record as 25.9 (2.6) %. At human GIPR [3] (setting [6]), the “GIPR Low Density cAMP Top” value was 107 (4) %. Besides, the “GLP-1R GRK2 Recruitment Top” value on GLP-1R [4] (efficacy (% Top), relative to maximal GLP-1, (SEM)) is recorded as 39.4 (3.7) %. Also, at human GIPR [5] (setting [6]), the “GIPR GTPγS Recruitment Top” value is reported as 91.0 (3.5) %.
